# Data taken from PMC11050282, “In Vitro and In Silico Studies on Cytotoxic Properties of Oxythiamine and 2′-Methylthiamine” (International Journal of Molecular Sciences, 2024).
# Experiments:
# [1] = system: primary human gingival fibroblasts; set-up: method as in PMID 35409800; details: 100 µM; cited from earlier work
# OCT1 = details: OCT1-related transport of drugs to cancer cells; cited from earlier work
# rat liver transketolase = biological target: rat liver transketolase; set-up: method as in PMID 3730445; details: cited from earlier work
# HeLa cells [2] = experiment: MTT test (cell metabolic activity); assay type: cell-based, human; details: for IC50: HeLa cells, 50% reduction in cell metabolism rate, MTT test; for IC50 / SI (selectivity index): mean ± SD; for SI (selectivity index): ratio of IC50 (MTT) fibroblasts versus HeLa cells
# Description: (§1) We investigated the cytotoxicity and effects of oxythiamine and 2′-methylthiamine on fibroblast (ATCC-CRL-2106) and HeLa (the human cervical cancer cell line; CCL-2; ATCC, Manassas, VA, USA) cell growth. Fibroblasts were at passage 5 and HeLa cells were at passage 15. Cells were cultured under the 5% CO2 and 95% humidity in Medium199 (M4530; Sigma-Aldrich, St. Louis, MO, USA) with 10% fetal bovine serum (F7524; Sigma-Aldrich), 50 U/mL penicillin, and 50 µg/mL streptomycin (P0781; Sigma-Aldrich) at 37 °C. The media was changed every 2 days. Cells were seeded at the density of 1 × 10^5 cells/well in 12-well plates one day prior to the addition of the test compounds. […] The toxicity of oxythiamine and 2′-methylthiamine was determined by means of colorimetric detection using the MTT test. The cells were incubated for 0.5 h in 0.5 mL of PBS with 50 μL of MTT (5 mg/mL). The medium was then removed from the wells, and formazan crystals were dissolved in 0.5 mL of dimethyl sulfoxide (DMSO) with 0.01 mL of Sorensen’s buffer. Absorbance was measured by means of the Lambda E plate reader (MWG Biotech AG, Ebensburg, Germany) at a wavelength of 570 nm. The results were expressed as a percentage of the controls. […] The experiments were conducted in six independent replicates for the purpose of statistical evaluation.
# [3] = system: fibroblasts (ATCC-CRL-2106); experiment: MTT test (cell metabolic activity); assay type: cell-based, human; details: for IC50: Homo sapiens, Fibroblast, fibroblasts, 50% reduction in cell metabolism rate, MTT test
# Description: as §1
# [4] = system: fibroblasts (ATCC-CRL-2106); experiment: Cell counting / growth curves in in vitro culture; assay type: cell-based, human; details: for fibroblast cell number / growth in comparison to the controls: 6–1500 µM; for GI50: Homo sapiens, Fibroblast, fibroblasts, concentration causing 50% cell growth inhibition, from cell growth graphs
# HeLa cells [5] = experiment: Cell counting / growth curves in in vitro culture; assay type: cell-based, human; details: for decrease in HeLa cell number compared to the control: 47 µM; for number of HeLa cells, % of the control: 1500 µM (maximum concentration); for GI50: HeLa cells, concentration causing 50% cell growth inhibition, from cell growth graphs, mean ± SD; for growth of HeLa cells in culture: microscopic observation / growth curves
# yeast transketolase = biological target: yeast transketolase; set-up: method as in PMID 13719876; details: cited from earlier work
# human skin fibroblasts = system: human skin fibroblasts; set-up: method as in PMID 25626895; details: 30 µM to 1000 µM; cited from earlier work
# THTR2 (SLC19A3) = details: thiamine transport by THTR2; cited from earlier work
# THTR1 (SLC19A2) = details: thiamine transport by THTR1; cited from earlier work
Structure (SMILES),reduction in cell viability [1],IC50 (HeLa cells [2]; Homo sapiens),SI (selectivity index) (HeLa cells [2]),IC50 [3],fibroblast cell number / growth in comparison to the controls [4],GI50 [4],decrease in HeLa cell number compared to the control (HeLa cells [5]),"number of HeLa cells, % of the control (HeLa cells [5])",GI50 (HeLa cells [5]),"GI50 (HeLa cells [5]; Homo sapiens, HeLa)",growth of HeLa cells in culture (HeLa cells [5]),further results
C/C(=C(\CCOP(=O)(O)O)SC(=O)c1ccccc1)N(C=O)Cc1cnc(C)[nH]c1=O [benfooxythiamine],about 10%,–,–,–,–,–,–,–,–,–,–,–
COc1cccc2c1C(=O)c1c(O)c3c(c(O)c1C2=O)C[C@@](O)(C(=O)CO)C[C@@H]3O[C@H]1C[C@H](N)[C@H](O)[C@H](C)O1 [doxorubicin],–,–,–,–,–,–,–,–,–,–,–,Km (OCT1): 4.6 µM
Cc1ncc(C[n+]2csc(CCO)c2C)c(O)n1 [oxythiamine],about 10%,51 µM,153,> 1500 µM,did not find any significant differences,> 1500 µM,higher than five-fold decrease,2%,36 µM,39 µM,inhibit the growth,"IC50 (rat liver transketolase): 0.2 µM; activity at 47 µM (HeLa cells [2]; Homo sapiens, HeLa, 47 µM, read-out: metabolic activity of HeLa cells (MTT), % of control): 50%; IC50 (yeast transketolase): ~0.03 µM; cell survival (human skin fibroblasts): not affecting cell survival"
Cc1ncc(C[n+]2csc(CCO)c2C)c(N)n1 [thiamine],–,> 1500 µM,–,> 1500 µM,did not observe any differences,> 1500 µM,–,–,–,> 1500 µM,did not observe any differences,metabolic activity of fibroblasts (MTT) ([3]; concentrations above 47 µM): slightly increased; Km (THTR2 (SLC19A3)): 0.00027 µM; Km (THTR1 (SLC19A2)): 2.5 µM
"Cc1ncc(C[n+]2c(C)sc(CCO)c2C)c(N)n1 [2′-methylthiamine, 2-[3-[(4-Amino-2-Methylpyrimidin-5-yl)methyl]-2,4-dimethyl-1,3-thiazol-3-ium-5-yl]ethanol]",–,112 µM,180,> 1500 µM,did not find any significant differences,> 1500 µM,decrease in the cell number by only about a half,~25%,107 µM,83 µM,inhibit the growth,decrease of metabolic activity of HeLa cells (MTT) concerning the control (HeLa cells [2]; 750 µM): 30%; melting point: 211 to 214 °C
